The results in this text go back to patent US6730334B2, “Multi-arm block copolymers as drug delivery vehicles” (Nektar Therapeutics AL, Corporation, priority 2001, dated 2004).

Structures are written as SMILES. In brackets after ≈: the same amount, converted by molar mass.

A short description of data set [1]: Solubility of drugs in plain buffer and in PPO-PEG multi-arm block copolymer 10050 formulation. The note with it: thermodynamic from solid; for solubility at 2 h: aqueous with cosolvent or surfactant or cyclodextrin, 50 mg PPO-PEG block copolymer 10050/drug formulation, 10 wt. % drug loading, in 1 ml phosphate buffer 0.1 M pH 7.4, 0.2 μm filtered; for solubility: aqueous buffer, phosphate buffer, 0.1 M, pH 7.4, read-out: Solubility of Drug in Plain Buffer. Format: physicochemical. On the procedure:
After two hours of mixing, the mixture was filtered through 0.2 μm syringe filter. The drug concentration in the filtrate was determined by HPLC or UV using a standard curve.

For data set [2] the following is noted: drug-loaded 8-arm-PCL-PEG26kDa, phosphate buffer 0.1 M pH 7.0, 37° C., rp-HPLC. How it is done:
At timed intervals, 10 μl of sample was withdrawn and diluted with phosphate buffer (0.1 M, pH 7.0). The solution was filtered through 0.2 μm syringe filter.
At timed intervals, 10 μl of sample was withdrawn and diluted with phosphate buffer (0.1 M, pH 7.0). The solution was filtered through 0.2 μm syringe filter. The filtrate was analyzed by rp-HPLC for paclitaxel concentration.

Data set [3] in a line: Drug concentration by HPLC in drug-loaded 8-arm-PCL-PEG26kDa solution. It counts as physicochemical. The note with it: 6 mg drug + 60 mg 8-arm-PCL-PEG26kDa (1/10) in 1 ml phosphate buffer 0.1 M pH 7.0, 0.2 μm filtered. How it is done:
The solution was dried under argon. The dried solid was heated at 55° C. for two hours under argon. The melt was then cooled to room temperature, placed under vacuum overnight, and reduced to small particles. To the particles was added 1 ml of phosphate buffer (0.1 M, pH 7.0), and the resulting mixture was filtered through 0.2 μm syringe filter.
The solution was dried under argon. The dried solid was heated at 55° C. for two hours under argon. The melt was then cooled to room temperature and placed under vacuum overnight, and reduced to small particles. To the particles was added 1 ml of phosphate buffer (0.1 M, pH 7.0). The resulting mixture was filtered through 0.2 μm syringe filter.

Turning to `CCCC(=O)OCOC(=O)C(C)(C)C` [Pivaloyloxymethyl butyrate, pivaloyloxymethyl butyrate], the solubility at 2 h in data set [1] was found to be 12000 µg/mL (≈ 59.3 mM).

As for `CC(=O)O[C@H]1C(=O)[C@@]2(C)[C@H]([C@H](OC(=O)c3ccccc3)[C@]3(O)C[C@H](OC(=O)[C@H](O)[C@@H](NC(=O)c4ccccc4)c4ccccc4)C(C)=C1C3(C)C)[C@]1(OC(C)=O)CO[C@@H]1C[C@@H]2O` [Paclitaxel, paclitaxel], the “Soluble drug concentration in solution vs. time (FIGS. 8, 9)” value in data set [2] is “retain the paclitaxel in solution for an extended period of time”. Besides, in data set [1], the solubility is less than 1 µg/mL and the solubility at 2 h amounted to 2000 µg/mL (≈ 2.34 mM). For the same compound, the “Drug concentration by HPLC” value in data set [3] was “above 4.5 mg/ml”.

For the compound `Cn1cc(C2=C(c3cn(C)c4cc([N+](=O)[O-])ccc34)C(=O)NC2=O)c2ccc([N+](=O)[O-])cc21` [MNIPD, 3,4-di-[1-methyl 6-nitro-3-indolyl]-1H-pyrrole-2,5-dione], in data set [1], the solubility is less than 0.5 µg/mL and the solubility at 2 h was 2600 µg/mL (≈ 5.84 mM).

With `COc1ccc2c(c1)c(CC(=O)O)c(C)n2C(=O)c1ccc(Cl)cc1` [Indomethacin, indomethacin], in data set [1], the solubility amounted to 88 µg/mL (≈ 0.246 mM) and the solubility at 2 h stood at 4000 µg/mL (≈ 11.2 mM).
